Source: patent US11180462B2, “Microbiocidal oxadiazole derivatives” (SYNGENTA PARTICIPATIONS AG, priority 2015, dated 2021)
Read-outs that look alike come from different tables or passages of the source.

Assays:
[1] = system: Puccinia recondita f. Sp. Tritici; test: Fungicidal activity against Puccinia recondita f. sp. tritici / wheat / leaf disc preventative (brown rust); format: in vivo; conditions: foliar, read-out: disease control
Summary of the method: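 200 ppm spray on wheat cv. Kanzler leaf segments; spore inoculation +1 day; 19° C., 75% rh, 12 h/12 h light cycle; single rating of % control vs untreated at 7 to 9 days.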

[2] = system: Puccinia recondita f. Sp. Tritici; test: Fungicidal activity against Puccinia recondita f. sp. tritici / wheat / leaf disc curative (brown rust); format: in vivo; conditions: foliar, 24 h, read-out: disease control
Summary of the method: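 Curative leaf-segment test: compound diluted in water applied 1 day after spore inoculation of cv. Kanzler wheat segments on agar. Conditions 19° C, 75% RH, 12 h/12 h light cycle. Read-out: % disease control relative to untreated check, 6 to 8 days after application.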

[3] = system: Glomerella lagenarium (Colletotrichum lagenarium); test: Fungicidal activity against Glomerella lagenarium (Colletotrichum lagenarium) liquid culture / cucumber / preventative (anthracnose); format: cell-based; conditions: Colletotrichum orbiculare, read-out: disease control
Summary of the method: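 Percent activity against the untreated check was derived from photometric growth measurements made 2 to 7 days after conidia in potato dextrose broth were combined with compound at 20 ppm. Cultures were kept dark at 24 °C and 96% humidity.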

[4] = 200 ppm in the applied formulation, wheat leaf segments, preventative, compared to untreated control leaf disks
[5] = 200 ppm in the applied formulation, wheat leaf segments, curative (applied 1 day after inoculation), compared to untreated control leaf disks
[6] = 20 ppm in the applied formulation, liquid culture (PDB), growth inhibition measured photometrically after 3 to 4 days, compared to untreated control

CCCCC(=O)N(CCOC)Cc1ccc(-c2noc(C(F)(F)F)n2)cc1 [Compound 1.366, N-(2-methoxyethyl)-N-[[4-[5-(trifluoromethyl)-1,2,4-oxadiazol-3-yl]phenyl]methyl]-pentanamide]
≥ 80%: pest or weed control at 200 ppm [1, 4] | pest or weed control at 200 ppm [2, 5] | inhibition of growth at 20 ppm [3, 6]

C#CCN(Cc1ccc(-c2noc(C(F)(F)F)n2)cc1)C(=O)C1(C(F)(F)F)CCC1 [Compound 1.161, N-prop-2-ynyl-1-(trifluoromethyl)-N-[[4-[5-(trifluoromethyl)-1,2,4-oxadiazol-3-yl]phenyl]methyl]-cyclobutane-carboxamide]
≥ 80%: pest or weed control at 200 ppm [1, 4] | pest or weed control at 200 ppm [2, 5] | inhibition of growth at 20 ppm [3, 6]

CCCC(=O)N(Cc1ccc(-c2noc(C(F)(F)F)n2)cc1)Cc1ccco1 [Compound 1.465, N-(2-furylmethyl)-N-[[4-[5-(trifluoromethyl)-1,2,4-oxadiazol-3-yl]phenyl]methyl]-butanamide]
≥ 80%: pest or weed control at 200 ppm [1, 4] | pest or weed control at 200 ppm [2, 5] | inhibition of growth at 20 ppm [3, 6]

COCC1(N(C)C(=O)N(C)Cc2ccc(-c3noc(C(F)(F)F)n3)cc2)CC1 [Compound 3.76, 1-[1-(methoxymethyl)-cyclopropyl]-1,3-dimethyl-3-[[4-[5-(trifluoromethyl)-1,2,4-oxadiazol-3-yl]phenyl]methyl]urea]
≥ 80%: pest or weed control at 200 ppm [1, 4] | pest or weed control at 200 ppm [2, 5] | inhibition of growth at 20 ppm [3, 6]

COCCCC(=O)N(Cc1ccc(-c2noc(C(F)(F)F)n2)cc1)Cc1ccco1 [Compound 1.467, N-(2-furylmethyl)-4-methoxy-N-[[4-[5-(trifluoromethyl)-1,2,4-oxadiazol-3-yl]phenyl]methyl]-butanamide]
≥ 80%: pest or weed control at 200 ppm [1, 4] | pest or weed control at 200 ppm [2, 5] | inhibition of growth at 20 ppm [3, 6]

CCN(CC)C(=O)N(Cc1ccc(-c2noc(C(F)(F)F)n2)cc1)OC [Compound 3.64, 1,1-diethyl-3-methoxy-3-[[4-[5-(trifluoromethyl)-1,2,4-oxadiazol-3-yl]phenyl]methyl]urea]
≥ 80%: pest or weed control at 200 ppm [1, 4] | pest or weed control at 200 ppm [2, 5] | inhibition of growth at 20 ppm [3, 6]

CON(Cc1ccc(-c2noc(C(F)(F)F)n2)cc1)C(=O)Oc1ccccc1 [Compound 2.6, phenyl N-methoxy-N-[[4-[5-(trifluoromethyl)-1,2,4-oxadiazol-3-yl]phenyl]methyl]-carbamate]
≥ 80%: pest or weed control at 200 ppm [1] | pest or weed control at 200 ppm [2] | inhibition of growth at 20 ppm [3]

COCCCC(=O)N(Cc1ccc(-c2noc(C(F)(F)F)n2)cc1)CC1CCCO1 (stereo not drawn) [Compound 1.452, 4-methoxy-N-(tetrahydrofuran-2-ylmethyl)-N-[[4-[5-(trifluoromethyl)-1,2,4-oxadiazol-3-yl]phenyl]methyl]-butanamide]
≥ 80%: pest or weed control at 200 ppm [1, 4] | pest or weed control at 200 ppm [2, 5] | inhibition of growth at 20 ppm [3, 6]

CCC(C)N(Cc1ccc(-c2noc(C(F)(F)F)n2)cc1)C(=O)C=CC(C)=O (stereo not drawn) [Compound 1.396, 4-oxo-N-sec-butyl-N-[[4-[5-(trifluoromethyl)-1,2,4-oxadiazol-3-yl]phenyl]methyl]-pent-2-enamide]
≥ 80%: pest or weed control at 200 ppm [1, 4] | pest or weed control at 200 ppm [2, 5] | inhibition of growth at 20 ppm [3, 6]

COCCN(Cc1ccc(-c2noc(C(F)(F)F)n2)cc1)C(=O)C1CCCC1 [Compound 1.332, N-(2-methoxyethyl)-N-[[4-[5-(trifluoromethyl)-1,2,4-oxadiazol-3-yl]phenyl]methyl]-cyclopentane-carboxamide]
≥ 80%: pest or weed control at 200 ppm [1, 4] | pest or weed control at 200 ppm [2, 5] | inhibition of growth at 20 ppm [3, 6]
